# Measured values as given in PubChem BioAssay (NCI).
#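 Interpolation was linear, between the two tested concentrations surrounding the appropriate level; five concentrations were tested over 48 hours in 96-well plates. GI50 is the concentration that inhibits growth by half. The concentration for full growth arrest is given as TGI.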
# Experiments:
# Experiment in all cases: NCI-60 cell line screen, 48 h
# T-47D breast = system: T-47D breast
# RXF 393 renal = system: RXF 393 renal
# A498 renal = system: A498 renal
# TK-10 renal = system: TK-10 renal
# SNB-75 CNS = system: SNB-75 CNS
# DU-145 prostate = system: DU-145 prostate
# HOP-92 NSCLC = system: HOP-92 NSCLC
# M14 melanoma = system: M14 melanoma
# UACC-257 melanoma = system: UACC-257 melanoma
# OVCAR-8 ovarian = system: OVCAR-8 ovarian
# SW-620 colon = system: SW-620 colon
# SNB-19 CNS = system: SNB-19 CNS
# U251 CNS = system: U251 CNS
# IGROV1 ovarian = system: IGROV1 ovarian
# HCT-15 colon = system: HCT-15 colon
# HCT-116 colon = system: HCT-116 colon
# SF-268 CNS = system: SF-268 CNS
# MDA-MB-468 breast = system: MDA-MB-468 breast
# SR leukemia = system: SR leukemia
# CCRF-CEM leukemia = system: CCRF-CEM leukemia
# OVCAR-4 ovarian = system: OVCAR-4 ovarian
# UACC-62 melanoma = system: UACC-62 melanoma
# EKVX NSCLC = system: EKVX NSCLC
# NCI/ADR-RES ovarian = system: NCI/ADR-RES ovarian
# SN12C renal = system: SN12C renal
# CAKI-1 renal = system: CAKI-1 renal
# HL-60(TB) leukemia = system: HL-60(TB) leukemia
# K-562 leukemia = system: K-562 leukemia
# ACHN renal = system: ACHN renal
# NCI-H226 lung = system: NCI-H226 lung
# SK-OV-3 ovarian = system: SK-OV-3 ovarian
# PC-3 prostate = system: PC-3 prostate
# NCI-H460 lung = system: NCI-H460 lung
# SF-295 CNS = system: SF-295 CNS
# MCF7 breast = system: MCF7 breast
# SK-MEL-28 melanoma = system: SK-MEL-28 melanoma
# LOX IMVI melanoma = system: LOX IMVI melanoma
# HOP-62 NSCLC = system: HOP-62 NSCLC
# HT29 colon = system: HT29 colon
# SF-539 CNS = system: SF-539 CNS
# NCI-H522 lung = system: NCI-H522 lung
# MDA-MB-231 breast = system: MDA-MB-231 breast
# MOLT-4 leukemia = system: MOLT-4 leukemia
# MDA-MB-435 = system: MDA-MB-435
# BT-549 breast = system: BT-549 breast
# NCI-H23 lung = system: NCI-H23 lung
# MALME-3M melanoma = system: MALME-3M melanoma
# 786-0 renal = system: 786-0 renal
# SK-MEL-5 melanoma = system: SK-MEL-5 melanoma
# A549 NSCLC = system: A549 NSCLC
# COLO 205 colon = system: COLO 205 colon
# HCC-2998 colon = system: HCC-2998 colon
# RPMI-8226 leukemia = system: RPMI-8226 leukemia
# KM12 colon = system: KM12 colon
# HS 578T breast = system: HS 578T breast
# OVCAR-5 ovarian = system: OVCAR-5 ovarian
# OVCAR-3 ovarian = system: OVCAR-3 ovarian
# SK-MEL-2 melanoma = system: SK-MEL-2 melanoma
# UO-31 renal = system: UO-31 renal
smiles,measurement,setting,value
c1ccc(C(=C(c2ccc(OCCN3CCCCC3)cc2)c2ccc(OCCN3CCCCC3)cc2)C2CCCC2)cc1,GI50,T-47D breast,3.98 µM
same,TGI,T-47D breast,15.4 µM
same,GI50,RXF 393 renal,2.91 µM
same,TGI,RXF 393 renal,7.11 µM
same,GI50,A498 renal,> 18 µM
same,TGI,A498 renal,> 18 µM
same,GI50,TK-10 renal,8.11 µM
same,TGI,TK-10 renal,> 18 µM
same,GI50,SNB-75 CNS,1.97 µM
same,TGI,SNB-75 CNS,13.8 µM
same,GI50,DU-145 prostate,4.25 µM
same,TGI,DU-145 prostate,10.5 µM
same,GI50,HOP-92 NSCLC,2.57 µM
same,TGI,HOP-92 NSCLC,5.85 µM
same,GI50,M14 melanoma,3.43 µM
same,TGI,M14 melanoma,8.04 µM
same,GI50,UACC-257 melanoma,4.11 µM
same,TGI,UACC-257 melanoma,12 µM
same,GI50,OVCAR-8 ovarian,6.93 µM
same,TGI,OVCAR-8 ovarian,> 18 µM
same,GI50,SW-620 colon,2.76 µM
same,TGI,SW-620 colon,5.35 µM
same,GI50,SNB-19 CNS,4.39 µM
same,TGI,SNB-19 CNS,14.6 µM
same,GI50,U251 CNS,3.56 µM
same,TGI,U251 CNS,8.23 µM
same,GI50,IGROV1 ovarian,2.98 µM
same,TGI,IGROV1 ovarian,5.65 µM
same,GI50,HCT-15 colon,> 18 µM
same,TGI,HCT-15 colon,> 18 µM
same,GI50,HCT-116 colon,3.48 µM
same,TGI,HCT-116 colon,6.82 µM
same,GI50,SF-268 CNS,3.53 µM
same,TGI,SF-268 CNS,9.09 µM
same,GI50,MDA-MB-468 breast,2.38 µM
same,TGI,MDA-MB-468 breast,5.19 µM
same,GI50,SR leukemia,2.99 µM
same,TGI,SR leukemia,8.46 µM
same,GI50,CCRF-CEM leukemia,3 µM
same,TGI,CCRF-CEM leukemia,6.55 µM
same,GI50,OVCAR-4 ovarian,5.7 µM
same,TGI,OVCAR-4 ovarian,> 18 µM
same,GI50,UACC-62 melanoma,2.9 µM
same,TGI,UACC-62 melanoma,5.35 µM
same,GI50,EKVX NSCLC,8.68 µM
same,TGI,EKVX NSCLC,> 18 µM
same,GI50,NCI/ADR-RES ovarian,> 18 µM
same,TGI,NCI/ADR-RES ovarian,> 18 µM
same,GI50,SN12C renal,4.08 µM
same,TGI,SN12C renal,11.8 µM
same,GI50,CAKI-1 renal,7.87 µM
same,TGI,CAKI-1 renal,> 18 µM
same,GI50,HL-60(TB) leukemia,1.68 µM
same,TGI,HL-60(TB) leukemia,5.42 µM
same,GI50,K-562 leukemia,1.64 µM
same,TGI,K-562 leukemia,> 18 µM
same,GI50,ACHN renal,> 18 µM
same,TGI,ACHN renal,> 18 µM
same,GI50,NCI-H226 lung,3.32 µM
same,TGI,NCI-H226 lung,13.3 µM
same,GI50,SK-OV-3 ovarian,4.27 µM
same,TGI,SK-OV-3 ovarian,11.8 µM
same,GI50,PC-3 prostate,3.58 µM
same,TGI,PC-3 prostate,7.79 µM
same,GI50,NCI-H460 lung,2.82 µM
same,TGI,NCI-H460 lung,5.41 µM
same,GI50,SF-295 CNS,5.14 µM
same,TGI,SF-295 CNS,> 18 µM
same,GI50,MCF7 breast,1.93 µM
same,TGI,MCF7 breast,4.52 µM
same,GI50,SK-MEL-28 melanoma,3.03 µM
same,TGI,SK-MEL-28 melanoma,5.81 µM
same,GI50,LOX IMVI melanoma,2.94 µM
same,TGI,LOX IMVI melanoma,5.43 µM
same,GI50,HOP-62 NSCLC,5.01 µM
same,TGI,HOP-62 NSCLC,> 18 µM
same,GI50,HT29 colon,3.1 µM
same,TGI,HT29 colon,6.24 µM
same,GI50,SF-539 CNS,2.88 µM
same,TGI,SF-539 CNS,5.4 µM
same,GI50,NCI-H522 lung,2.61 µM
same,TGI,NCI-H522 lung,5.9 µM
same,GI50,MDA-MB-231 breast,2.94 µM
same,TGI,MDA-MB-231 breast,6.01 µM
same,GI50,MOLT-4 leukemia,2.59 µM
same,TGI,MOLT-4 leukemia,7.72 µM
same,GI50,MDA-MB-435,2.59 µM
same,TGI,MDA-MB-435,5.37 µM
same,GI50,BT-549 breast,2.8 µM
same,TGI,BT-549 breast,5.38 µM
same,GI50,NCI-H23 lung,5.16 µM
same,TGI,NCI-H23 lung,17.9 µM
same,GI50,MALME-3M melanoma,2.69 µM
same,TGI,MALME-3M melanoma,5.1 µM
same,GI50,786-0 renal,5.54 µM
same,TGI,786-0 renal,> 18 µM
same,GI50,SK-MEL-5 melanoma,2.73 µM
same,TGI,SK-MEL-5 melanoma,5.23 µM
same,GI50,A549 NSCLC,3.29 µM
same,TGI,A549 NSCLC,7.96 µM
same,GI50,COLO 205 colon,3.24 µM
same,TGI,COLO 205 colon,6.71 µM
same,GI50,HCC-2998 colon,2.83 µM
same,TGI,HCC-2998 colon,5.33 µM
same,GI50,RPMI-8226 leukemia,3.44 µM
same,TGI,RPMI-8226 leukemia,8.24 µM
same,GI50,KM12 colon,3.45 µM
same,TGI,KM12 colon,6.48 µM
same,GI50,HS 578T breast,3.76 µM
same,TGI,HS 578T breast,11.8 µM
same,GI50,OVCAR-5 ovarian,4.67 µM
same,TGI,OVCAR-5 ovarian,> 18 µM
same,GI50,OVCAR-3 ovarian,3.05 µM
same,TGI,OVCAR-3 ovarian,5.85 µM
same,GI50,SK-MEL-2 melanoma,3.78 µM
same,TGI,SK-MEL-2 melanoma,9.2 µM
same,GI50,UO-31 renal,> 18 µM
same,TGI,UO-31 renal,> 18 µM
